These results are taken from publication PMC12656329, “Specific Hepatorenal Toxicity and Cross-Species Susceptibility of Eight Representative Pesticides” (Toxics, 2025).

Entries after “also recorded” stand apart in the source; their conditions may differ. Like-named read-outs stand apart in the source and are kept apart here.

The conditions of data set [1]: metabolite of chlorpyrifos; ref [3] (Huen et al. 2012, ref 76); cited from earlier work.
Data set [2] deals with CCC-HEL-1 hepatocytes. Nature of the data set: CCK-8 cytotoxicity assay, CCC-HEL-1. Type of data set: cell-based. As to conditions: Homo sapiens, Hepatocyte; CCK-8, 24 h exposure. As for the experimental part:
(§1) Human embryonic kidney 293T (HEK293T) cells and rat renal NRK cells were maintained in high-glucose DMEM supplemented with 10% fetal bovine serum (FBS) and 1% penicillin–streptomycin at 37 °C under 5% CO2 until reaching 70–80%. Human liver CCC-HEL-1 cells were cultured under identical conditions but with 20% FBS, while rat normal hepatocytes were grown in high-glucose MEM containing 20% FBS and 1% penicillin–streptomycin. Stock solutions (500 g/L) of eight pesticide standards were prepared in dimethyl sulfoxide (DMSO) and stored at −20 °C. Working concentrations were freshly diluted in serum-containing culture medium prior to each experiment.
(§2) The cytotoxicity of eight pesticides on four mammalian cell lines was assessed using the Cell Counting Kit-8 (CCK-8) assay. Initially, stock solutions of each pesticide were prepared by dissolving the compound in dimethyl sulfoxide (DMSO) to a final concentration of 500 g/L. For the assay, cells were seeded into 96-well plates at a density of 2 × 10^4 cells per well in 100 µL of medium and incubated for 24 h at 37 °C under a 5% CO2 atmosphere to allow for attachment. Subsequently, the culture medium was replaced with fresh medium containing the pesticides at a series of final concentrations (0, 10, 100, 200, 400, 800, 1000, and 2500 mg/L). Pesticide working concentrations were prepared through serial dilution of the 500 g/L DMSO stock solution, resulting in variable final DMSO concentrations across treatment groups (ranging from 0.002% to 0.5% v/v). A media-only blank (no cells) was included for background absorbance correction, and a solvent control (0.1% DMSO, no pesticide) was used to account for any vehicle effects. All conditions were performed in five replicates. […] At DMSO concentrations ranging from 0.1% to 0.2%, the viability of all four cell lines remained stable above 80%. At a 1% DMSO concentration, the viability of all four cell types was around 50% or higher (Supplementary Figure S5). Following 24 h of exposure, 10 µL of CCK-8 reagent was added to each well. Absorbance Measurement: After an additional 1 h of incubation in the dark, the optical density (OD) at 450 nm was recorded using a microplate reader. Cell viability was calculated by comparing the OD values of treated groups with those of the blank control. Although some test concentrations exceeded the water solubility of the pesticides, the combination of DMSO and serum in the culture medium maintained a uniform exposure system. No precipitation was observed during the experiment, ensuring that the measured effects are attributed to the bioavailable fraction of the compound. […]
(§3) 1. Pesticide Exposure: After removing the medium, fresh medium containing gradient concentrations (0–2500 mg/L) of each pesticide was added (five replicates per concentration).
(§4) Following 24 h of exposure, 10 µL of CCK-8 reagent was added to each well.
(§5) 2. Absorbance Measurement: After 1 h of dark incubation, the OD at 450 nm was measured using a microplate reader.
(§6) 3. Cell Viability Calculation: Viability was determined by comparing the OD values of treated groups to the blank control. […]
On the technique in general: Tetrazolium assays rely on reduction of a dye to a coloured formazan, in cell work by metabolically active cells.

For data set [3], the system named is IAR hepatocytes. Nature of the data set: CCK-8 cytotoxicity assay, IAR. Format: cell-based. As to conditions: Rattus norvegicus, Hepatocyte; CCK-8, 24 h exposure. As for the experimental part: as §1, §2, §3, §4, §5, §6
Data set [4] relates to 293T renal cells. Nature of the data set: CCK-8 cytotoxicity assay, 293T. Particulars: CCK-8, 24 h exposure; for IC50: Homo sapiens, HEK-293T, 24 h. Type of data set: cell-based, human. As for the experimental part:
as §1, §2, §3, §4, §5, §6

The subject of data set [5] is NRK renal cells. The data set can be described thus: CCK-8 cytotoxicity assay, NRK. Format: cell-based. Particulars: Rattus norvegicus; CCK-8, 24 h exposure. As for the experimental part: as §1, §2, §3, §4, §5, §6
In data set [6] the test system is 293T renal cells. The data set can be described thus: ELISA of toxicity biomarkers (LDH, KIM-1) in culture supernatant, 293T. Type of data set: cell-based, human. Particulars: 293T cells, 24 h exposure at median lethal concentration, vs control. On the procedure: The levels of hepatotoxicity biomarkers (ALT, AST, ALP) and nephrotoxicity biomarkers (KIM-1, LDH) in cell culture supernatant were quantified using commercially available ELISA kits (Cloud-Clone Corp., Wuhan, China). 100 μL of the supernatant was added to the pre-coated wells and incubated according to the manufacturer’s protocol (five replicates). After washing, the appropriate detection antibody and substrate were added, and the absorbance was measured at 450 nm using microplate reader. The concentrations of the biomarkers were determined based on standard curves.
For orientation: An ELISA detects its analyte on a solid surface through an enzyme-linked reagent.

Data set [7] relates to MRP2 in 293T renal cells. Nature of the data set: MRP2 immunofluorescence staining, 293T. Format: cell-based, human. Particulars: 293T cells, 24 h at IC50, immunofluorescence, vs untreated controls. As for the experimental part: Cells were seeded at a density of 1 × 10^5 cells per well in immunofluorescence-specific glass-bottom dishes and allowed to adhere for 24 h. […] Following treatment, cells were fixed with 4% paraformaldehyde for 15 min at room temperature and permeabilized with 0.1% Triton X-100 for 10 min. Non-specific binding was blocked with 5% bovine serum albumin (BSA) for 1 h at room temperature. Cells were then incubated with primary antibody against MRP2 (1:300 dilution) overnight at 4 °C. After three washes with PBS, cells were treated with secondary antibody (rabbit anti-IgG, 1:600 dilution) for 1 h at room temperature and washed three times with PBS. Anti-MRP2 antibody (Abcam, ab172630) and Alexa Fluor® 488-conjugated anti-rabbit IgG secondary antibody (Cell Signaling Technology, Danvers, MA, USA, 4412) were used for immunofluorescence staining. Nuclei were counterstained with DAPI Staining Solution (C1005, 10 mL) (Beyotime Biotechnology, Shanghai, China). Fluorescent images were captured using a 10× inverted fluorescence microscope. Quantitative analysis of fluorescence intensity was performed using ImageJ software 2.1.0 (National Institutes of Health, Bethesda, MD, USA).

The test system of data set [8] is four mammalian cell lines (CCC-HEL-1, 293T, IAR, NRK). The data set can be described thus: CCK-8 cytotoxicity, statements across the four cell lines. Particulars: CCK-8 / heatmap of OD values. Type of data set: cell-based, human and rat. On the procedure:
The cytotoxicity of eight pesticides on four mammalian cell lines was assessed using the Cell Counting Kit-8 (CCK-8) assay. Initially, stock solutions of each pesticide were prepared by dissolving the compound in dimethyl sulfoxide (DMSO) to a final concentration of 500 g/L. For the assay, cells were seeded into 96-well plates at a density of 2 × 10^4 cells per well in 100 µL of medium and incubated for 24 h at 37 °C under a 5% CO2 atmosphere to allow for attachment. Subsequently, the culture medium was replaced with fresh medium containing the pesticides at a series of final concentrations (0, 10, 100, 200, 400, 800, 1000, and 2500 mg/L). Pesticide working concentrations were prepared through serial dilution of the 500 g/L DMSO stock solution, resulting in variable final DMSO concentrations across treatment groups (ranging from 0.002% to 0.5% v/v). A media-only blank (no cells) was included for background absorbance correction, and a solvent control (0.1% DMSO, no pesticide) was used to account for any vehicle effects. All conditions were performed in five replicates. […] At DMSO concentrations ranging from 0.1% to 0.2%, the viability of all four cell lines remained stable above 80%. At a 1% DMSO concentration, the viability of all four cell types was around 50% or higher (Supplementary Figure S5). Following 24 h of exposure, 10 µL of CCK-8 reagent was added to each well. Absorbance Measurement: After an additional 1 h of incubation in the dark, the optical density (OD) at 450 nm was recorded using a microplate reader. Cell viability was calculated by comparing the OD values of treated groups with those of the blank control. Although some test concentrations exceeded the water solubility of the pesticides, the combination of DMSO and serum in the culture medium maintained a uniform exposure system. No precipitation was observed during the experiment, ensuring that the measured effects are attributed to the bioavailable fraction of the compound.

Data set [9] concerns CCC-HEL-1 hepatocytes. Particulars: CCC-HEL-1 cells, 24 h exposure at median lethal concentration, vs control.
Data set [10] concerns Rat. Particulars: cited from earlier work.
The conditions of data set [11]: ref PPDB: Pesticide Properties DataBase, cited from earlier work.
Data set [12] deals with Colinus virginianus. As to conditions: in vivo; cited from earlier work.
Setting [13] is: Rat, ref PPDB: Pesticide Properties DataBase.
The mark [14] stands for this setting: cell lines as stated in the sentence.

With `Oc1nc(Cl)c(Cl)cc1Cl` [TCPy, 3,5,6-Trichloro-2-pyridinol], the “Toxicokinetic Parameter (Concentration), highest level” value in data set [1] is 6.27 ng/mL.
On to `CCOP(=S)(OCC)Oc1nc(Cl)c(Cl)cc1Cl` [Chlorpyrifos, chlorpyrifos], for which the half-maximal inhibitory concentration (IC50) in data set [2] was 633 µg/mL; in [3], 898 µg/mL; in [4] it was 444 µg/mL; in [5] it was 990 µg/mL. In [6], the KIM-1 expression result was “significantly decreased; also recorded: statistically significant downregulation”. The MRP2 protein level entry in data set [7] was “most pronounced effect; also recorded: most pronounced downregulation”. The “cytotoxicity (in words)” value in data set [8] is “lowest toxicity; also recorded: minimal direct cytotoxicity”. In addition, the AST level entry in [9] is “marked suppression”. Moreover, the LDH level entry in data set [9] is listed as “most dramatic LDH elevation”. In [10] (setting [13]), the “Mammals - Acute oral LD50” value was 66 mg/kg. Also, the “ADI - Acceptable Daily Intake” value in [11] (Rat SF=100) is given as 0.001 mg kg⁻¹ bw day⁻¹.
In the case of `CC(C)(C)C(=O)C(Oc1ccc(Cl)cc1)n1cncn1` (stereo not shown) [Triadimefon, triadimefon], the half-inhibitory concentration (IC50) in data set [2] amounted to 219 µg/mL; in data set [3] it was 878 µg/mL; in data set [4], 107 µg/mL; in data set [5] it was 977 µg/mL. For the same compound, in data set [8] (setting [14]), the “cytotoxicity (in words)” value was “strong cytotoxic effects”. Also, the “ADI - Acceptable Daily Intake” value in data set [11] (basis species not given) was 0.03 mg kg⁻¹ bw day⁻¹.
Turning to `CC1COC(Cn2cncn2)(c2ccc(Oc3ccc(Cl)cc3)cc2Cl)O1` (stereo not shown) [Difenoconazole, difenoconazole], the IC50 came to 374 µg/mL in data set [2], 132 µg/mL in [3], 209 µg/mL in data set [4] and 498 µg/mL in data set [5]. Besides, the KIM-1 expression result in data set [6] was “significantly decreased”. In addition, the “cytotoxicity (in words)” value in [8] (setting [14]) is listed as “strong cytotoxic effects”. For the same compound, the ALT level entry in data set [9] was “reduced ALT activity”. The values for the AST level entry in data set [9] and in [9] (listed as difenoconazole) were “increased levels” and “elevated AST levels”, respectively. For the same compound, the “ADI - Acceptable Daily Intake” value in data set [11] (Rat SF=100) is 0.01 mg kg⁻¹ bw day⁻¹.
For `N#Cc1c(Cl)c(Cl)c(Cl)c(C#N)c1Cl` [Chlorothalonil, chlorothalonil], the 50% inhibitory concentration (IC50) in data set [2] came out at 48.1 µg/mL; in data set [3] it was 21.3 µg/mL; in data set [4], 32.5 µg/mL; in [5], 55.6 µg/mL. The “293T IC50” value in data set [4] was 32.6 µg/mL. The “cytotoxicity (in words)” value in [8] (setting [14]) was “relatively lower cytotoxicity at specific concentrations”; in data set [8] (cell lines as stated in the sentence, listed as chlorothalonil), “strongest cytotoxicity; also recorded: most cytotoxic agent”. Also, the AST level result in data set [9] was “marked suppression”. Besides, the “Mammals - Acute oral LD50” value in data set [10] (setting [13]) was above 5000 mg/kg. Besides, the “ADI - Acceptable Daily Intake” value in [11] (Rat SF=100) is 0.015 mg kg⁻¹ bw day⁻¹.
Consider `CC(C)(C)C(O)(CCc1ccc(Cl)cc1)Cn1cncn1` (stereo not shown) [Tebuconazole, tebuconazole], for which the IC50 stood at 135 µg/mL in data set [2], 188 µg/mL in data set [3], 41.5 µg/mL in data set [4] and 171 µg/mL in data set [5]. In addition, the “cytotoxicity (in words)” value in data set [8] (setting [14]) was “relatively lower cytotoxicity at specific concentrations”. For the same compound, the ALP level result was “concurrent elevations of both ALT and ALP” in data set [9]; “substantial increases” in [9] (listed as tebuconazole). The LDH level entry in data set [9] was “LDH elevation”. In [10] (rat, in vivo, po), the “Mammals - Acute oral LD50” value was 1700. Besides, the “Birds - Acute LD50” value in data set [12] is 1988. The “ADI - Acceptable Daily Intake” value in [11] (Dog SF=100) is 0.03 mg kg⁻¹ bw day⁻¹.
On to `Cc1cc(C)nc(Nc2ccccc2)n1` [Pyrimethanil, pyrimethanil], for which the concentration for half-maximal inhibition (IC50) in [2] is 505 µg/mL; in data set [3], 362 µg/mL; in data set [4] it was 111 µg/mL; in data set [5], 192 µg/mL. The LDH release result in data set [6] is “significantly elevated LDH release”; in data set [6] (listed as pyrimethanil) it was “significantly increased”. Also, the values for the ALP level entry in [9] and in [9] (listed as pyrimethanil) were “isolated ALP elevation” and “substantial increases”, respectively. For the same compound, in data set [9], the ALT level entry was “normal ALT levels”. In addition, in data set [9], the LDH level entry is on record as “LDH elevation”. The “Mammals - Acute oral LD50” value in data set [10] (setting [13]) is 4150 mg/kg. In [11] (Rat SF=100), the “ADI - Acceptable Daily Intake” value was 0.17 mg kg⁻¹ bw day⁻¹.

As a reminder, the IC50 is the midpoint of a concentration-inhibition curve.
